Test results published in PubChem BioAssay AID330 (DTP/NCI, 2004).
Values joined by “and” are separate entries in the source; they are usually repeats but may differ in a detail not shown here. Equal entries are not always repeated. Inconclusive results and toxic doses are left out. The calls were made as follows: active = survival T/C of 150% or more; inactive = T/C below 125% in these data.

Test system: P388 leukemia ip, CD2F1 mice, survival T/C
Assay: NCI In Vivo Anticancer Drug Screen. Data for tumor model P388 Leukemia (intraperitoneal) in CD2F1 (CDF1) mice
Conditions: endpoint: median survival time, higher = longer survival
Procedure, shortened: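 Mice carrying the transplanted tumor received test compound or vehicle. Survival was recorded in each group, and the value is the treated-group measurement divided by that of the vehicle-treated control group.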

[1] = dose: 100.0 mg/kg/injection, schedule: Q04DX002 (ip), vehicle: saline with Tween-80
[2] = dose: 200.0 mg/kg/injection, schedule: Q04DX002 (ip), vehicle: saline with Tween-80
[3] = dose: 400.0 mg/kg/injection, schedule: Q04DX002 (ip), vehicle: saline with Tween-80
[4] = dose: 100.0 mg/kg/injection, schedule: Q01DX009 (ip), vehicle: saline with Tween-80
[5] = dose: 200.0 mg/kg/injection, schedule: Q01DX009 (ip), vehicle: saline with Tween-80
[6] = dose: 50.0 mg/kg/injection, schedule: Q01DX005 (ip), vehicle: saline with Tween-80
[7] = dose: 100.0 mg/kg/injection, schedule: Q01DX005 (ip), vehicle: saline with Tween-80
[8] = dose: 50.0 mg/kg/injection, schedule: Q01DX009 (ip), vehicle: saline
[9] = dose: 100.0 mg/kg/injection, schedule: Q01DX009 (ip), vehicle: saline
[10] = dose: 200.0 mg/kg/injection, schedule: Q01DX009 (ip), vehicle: saline
[11] = dose: 15.0 mg/kg/injection, schedule: Q01DX005 (ip), vehicle: saline with Tween-80
[12] = dose: 30.0 mg/kg/injection, schedule: Q01DX005 (ip), vehicle: saline with Tween-80
[13] = dose: 400.0 mg/kg/injection, schedule: Q01DX009 (ip), vehicle: saline with Tween-80
[14] = dose: 60.0 mg/kg/injection, schedule: Q01DX005 (ip), vehicle: saline with Tween-80
[15] = dose: 240.0 mg/kg/injection, schedule: Q01DX005 (ip), vehicle: saline with Tween-80

Measured: T/C

CC1OC2=C(CC1O)C(=O)c1ccccc1C2=O (stereo unspecified)
inactive: dose: 100.0 mg/kg/injection, schedule: Q01DX001 (ip), vehicle: Klucel (hydroxypropylcellulose) (HPC) 102 % of control | dose: 200.0 mg/kg/injection, schedule: Q01DX001 (ip), vehicle: Klucel (hydroxypropylcellulose) (HPC) 102 % of control | dose: 400.0 mg/kg/injection, schedule: Q01DX001 (ip), vehicle: Klucel (hydroxypropylcellulose) (HPC) 100 % of control

Cc1ccc(C)c(NC(=O)Nc2ccc(C(=O)O)c(O)c2)c1
inactive: dose: 50.0 mg/kg/injection, schedule: Q01DX009 (ip), vehicle: Klucel (hydroxypropylcellulose) (HPC) 101 % of control | dose: 100.0 mg/kg/injection, schedule: Q01DX009 (ip), vehicle: Klucel (hydroxypropylcellulose) (HPC) 101 % of control | dose: 200.0 mg/kg/injection, schedule: Q01DX009 (ip), vehicle: Klucel (hydroxypropylcellulose) (HPC) 114 % of control

CC(C)NCc1ccccc1Sc1ccccc1
inactive: dose: 25.0 mg/kg/injection, schedule: Q01DX001 (ip), vehicle: saline with Tween-80 96 % of control | dose: 50.0 mg/kg/injection, schedule: Q01DX001 (ip), vehicle: saline with Tween-80 104 % of control | dose: 100.0 mg/kg/injection, schedule: Q01DX001 (ip), vehicle: saline with Tween-80 95 % of control

COc1ccc(C(=O)NC[n+]2ccccc2)cc1
inactive: dose: 25.0 mg/kg/injection, schedule: Q04DX003 (ip), vehicle: saline 100 % of control | dose: 50.0 mg/kg/injection, schedule: Q04DX003 (ip), vehicle: saline 100 % of control | dose: 100.0 mg/kg/injection, schedule: Q04DX003 (ip), vehicle: saline 104 % of control

CC(=O)OCC1OC(Nc2[nH]c(=O)n(C)c(=O)c2N=O)C(OC(C)=O)C(OC(C)=O)C1OC(C)=O (stereo unspecified)
inactive: [1] 104 % of control | [2] 103 % of control | [3] 102 % of control

CN(C)CCN(C)C
inactive: [4] 100 % of control | [5] 95 % of control

CCN(CC)CCCNc1c2c(nc3c(Cl)cccc13)CCCC2
inactive: [6] 100 % of control | [7] 100 % of control

CC(C)CC(N)C(=O)NC(Cc1c[nH]c2ccccc12)C(N)=O (stereo unspecified)
inactive: [8] 93 % of control | [9] 98 % of control | [10] 99 % of control

C[C@@]12CCCC1=[N+]1CCc3ccccc3[C@@H]1CC2=O
inactive: dose: 100.0 mg/kg/injection, schedule: Q04DX002 (ip), vehicle: Klucel (hydroxypropylcellulose) (HPC) 101 % of control | dose: 200.0 mg/kg/injection, schedule: Q04DX002 (ip), vehicle: Klucel (hydroxypropylcellulose) (HPC) 102 % of control

O=C1C2OC2C(O)(CCN(Cc2ccc3c(c2)OCO3)C(=O)C(F)(F)F)C2OC12 (stereo unspecified)
inactive: dose: 6.25 mg/kg/injection, schedule: Q01DX001 (ip), vehicle: saline 104 % of control | dose: 12.5 mg/kg/injection, schedule: Q01DX001 (ip), vehicle: saline 105 % of control | dose: 25.0 mg/kg/injection, schedule: Q01DX001 (ip), vehicle: saline 106 % of control

O=[N+]([O-])c1ccc(N=Nc2c(-c3ccccc3)nn(C(=S)S)c2-c2ccccc2)cc1
inactive: [1] 92 % of control | [2] 97 % of control | [3] 101 % of control

[CH3][Sn]([c]1ccccc1)[c]1ccccc1
inactive: [8] 105 % of control | [9] 98 % of control | [10] 113 % of control

CC(/C=C/c1ccc(Cl)cc1)=N\NC(N)=S
inactive: dose: 7.5 mg/kg/injection, schedule: Q01DX005 (ip), vehicle: saline with Tween-80 100 % of control | [11] 120 % of control | [12] 124 % of control

CCOC(=O)C(CNc1ccc(O)cc1)NC(=O)c1ccccc1 (stereo unspecified)
inactive: [8] 101 % of control | [4] 94 % of control | [9] 103 % of control | [5] 94 % of control | [10] 102 % of control | [13] 94 % of control | dose: 400.0 mg/kg/injection, schedule: Q01DX009 (ip), vehicle: saline 101 % of control

CN1c2ccccc2S(=O)(=O)n2c(CCc3ccccc3)nnc21
inactive: [11] 103 % of control | [12] 100 % of control | [14] 87 % of control and 97 % of control | [15] 90 % of control

CC(=O)NC(Cc1ccc(F)cc1)C(=O)O (stereo unspecified)
inactive: dose: 50.0 mg/kg/injection, schedule: Q01DX009 (ip), vehicle: saline with Tween-80 101 % of control and 109 % of control | [4] 102 % of control and 109 % of control | [5] 107 % of control and 95 % of control | [13] 107 % of control and 113 % of control | dose: 600.0 mg/kg/injection, schedule: Q01DX009 (ip), vehicle: saline with Tween-80 112 % of control and 124 % of control

C(=N\Nc1c2c(nc3ccccc13)CCCC2)/c1ccc2c(c1)OCO2
inactive: dose: 3.12 mg/kg/injection, schedule: Q01DX005 (ip), vehicle: Klucel (hydroxypropylcellulose) (HPC) 109 % of control | dose: 6.25 mg/kg/injection, schedule: Q01DX005 (ip), vehicle: Klucel (hydroxypropylcellulose) (HPC) 95 % of control | dose: 12.5 mg/kg/injection, schedule: Q01DX005 (ip), vehicle: Klucel (hydroxypropylcellulose) (HPC) 90 % of control and 95 % of control

COC(=O)C1=[N+]([O-])OC(C(=O)OC)C1c1ccc(NC(C)=O)cc1 (stereo unspecified)
inactive: [6] 98 % of control | [7] 93 % of control | dose: 200.0 mg/kg/injection, schedule: Q01DX005 (ip), vehicle: saline with Tween-80 90 % of control

N#CC(C(=O)C(=O)Nc1ccccc1)c1c(Cl)cccc1Cl (stereo unspecified)
inactive: [14] 98 % of control | dose: 120.0 mg/kg/injection, schedule: Q01DX005 (ip), vehicle: saline with Tween-80 104 % of control | [15] 98 % of control
